This assay relates to test plant species. Put plainly: Post-emergent herbicidal activity test (greenhouse, foliar spray, visual growth reduction). In kind it is in vivo. The settings on record: post-emergence, 336 h, 140 g ai/ha. Summed up: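 Scoring used a 0 to 100 percent visual scale of growth reduction against solvent-treated controls, read 14 d after spraying. Applications went onto plants at first or second true leaf stage, 187 L/ha, with crop oil concentrate and X-77 surfactant in the carrier. Post-treatment watering was by subirrigation to avoid wash-off.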

Where [1] appears, read: ECHCG: barnyardgrass (Echinochloa crus-galli), 14 days after application, read-out: Visual Growth Reduction (%) 14 Days After Application, ECHCG.
[2] abbreviates: IPOHE: ivy-leaf morning glory (Ipomoea hederacea), 14 days after application, read-out: Visual Growth Reduction (%) 14 Days After Application, IPOHE.
[3] abbreviates: KCHSC: kochia (Bassia scoparia), 14 days after application, read-out: Visual Growth Reduction (%) 14 Days After Application, KCHSC.
Where [4] appears, read: ORYSA: rice (Oryza sativa), 14 days after application, read-out: Visual Growth Reduction (%) 14 Days After Application, ORYSA.
[5] abbreviates: SETFA: giant foxtail (Setaria faberi), 14 days after application, read-out: Visual Growth Reduction (%) 14 Days After Application, SETFA.
Setting [6] is: SORVU: grain sorghum (Sorghum vulgare), 14 days after application, read-out: Visual Growth Reduction (%) 14 Days After Application, SORVU.
[7] abbreviates: STEME: common chickweed (Stellaria media), 14 days after application, read-out: Visual Growth Reduction (%) 14 Days After Application, STEME.
Where [8] appears, read: TRZAS: wheat, spring (Triticum aestivum), 14 days after application, read-out: Visual Growth Reduction (%) 14 Days After Application, TRZAS.
[9] abbreviates: blackgrass (Alopecurus myosuroides), 14 Days After Application, read-out: Visual Growth Reduction (%) ALOMY.
[10] abbreviates: canada thistle (Cirsium arvense), 14 Days After Application, read-out: Visual Growth Reduction (%) CIRAR.
[11] abbreviates: crabgrass (Digitaria sanguinalis), 14 Days After Application, read-out: Visual Growth Reduction (%) DIGSA.
Where [12] appears, read: lambsquarters (Chenopodium album), 14 Days After Application, read-out: Visual Growth Reduction (%) CHEAL.
Setting [13] is: redroot pigweed (Amaranthus retroflexus), 14 Days After Application, read-out: Visual Growth Reduction (%) AMARE.
Setting [14] is: wild oat (Avena fatua), 14 Days After Application, read-out: Visual Growth Reduction (%) AVEFA.
The mark [15] stands for this setting: yellow nutsedge (Cyperus esculentus), 14 Days After Application, read-out: Visual Growth Reduction (%) CYPES.

Molecules are shown by their SMILES. Where two headings read alike, the source gives them in different places.

On to `COc1c(Cl)cc(Cl)c(-c2nc(C(=O)OCc3ccccc3)c(Cl)cc2F)c1F` [F300, Benzyl 3-chloro-6-(4,6-dichloro-2-fluoro-3-methoxyphenyl)-5-fluoropicolinate], for which the pest or weed control at 140 g/ha is, setting by setting: under setting [1], 0 to 29%; under setting [2], 60 to 74%; under setting [3], 30 to 44%; under setting [4], 0 to 29%; under setting [5], 0 to 29%; under setting [6], 0 to 29%. The pest or weed control at 140 g/ha lay in the range of 0 to 29% under setting [7]; 0 to 29% under setting [8]; 0 to 29% under setting [9]; 45 to 59% under setting [10]; 0 to 29% under setting [11]; 75 to 84% under setting [12]. Further, the pest or weed control at 140 g/ha reads like this: under setting [13], 0 to 29%; under setting [14], 0 to 29%; under setting [15], 0 to 29%.
`COC(=O)c1nc(-c2c(Cl)cccc2OC)c(F)cc1Cl` [F301, Methyl 3-chloro-6-(2-chloro-6-methoxyphenyl)-5-fluoropicolinate]: the pest or weed control at 140 g/ha fell in the range of 0 to 29% under setting [1]; 0 to 29% under setting [2]; 0 to 29% under setting [3]; 0 to 29% under setting [4]; 0 to 29% under setting [5]; 0 to 29% under setting [6]. The pest or weed control at 140 g/ha reads like this: under setting [7], 0 to 29%; under setting [8], 0 to 29%; under setting [9], 0 to 29%; under setting [10], 0 to 29%; under setting [11], 0 to 29%; under setting [12], 0 to 29%. For the same compound, the pest or weed control at 140 g/ha reads like this: under setting [13], 0 to 29%; under setting [14], 0 to 29%; under setting [15], 0 to 29%.
On to `C=Cc1cc(-c2nc(C(=O)OC)c(Cl)cc2F)c(Cl)cc1C(F)(F)F` [F303, Methyl 3-chloro-6-(2-chloro-4-(trifluoromethyl)-5-vinylphenyl)-5-fluoropicolinate], for which the pest or weed control at 140 g/ha was 0 to 29% under setting [1]; 95 to 100% under setting [2]; 0 to 29% under setting [3]; 0 to 29% under setting [4]; 0 to 29% under setting [5]; 0 to 29% under setting [6]. For the same compound, the pest or weed control at 140 g/ha lay in the range of 0 to 29% under setting [7]; 0 to 29% under setting [8]; 0 to 29% under setting [9]; 0 to 29% under setting [10]; 0 to 29% under setting [11]; 75 to 84% under setting [12]. For the same compound, the pest or weed control at 140 g/ha under setting [13] is 0 to 29%, the pest or weed control at 140 g/ha under setting [14] was 0 to 29% and the pest or weed control at 140 g/ha under setting [15] lay in the range of 0 to 29%.
Regarding `COC(=O)c1nc(-c2ccc(C(F)(F)F)c(Cl)c2)ccc1Cl` [F304, Methyl 3-chloro-6-(3-chloro-4-(trifluoromethyl)phenyl)picolinate], the pest or weed control at 140 g/ha by setting is: under setting [1], 0 to 29%; under setting [2], 95 to 100%; under setting [3], 0 to 29%; under setting [4], 0 to 29%; under setting [5], 0 to 29%; under setting [6], 0 to 29%. Also, the pest or weed control at 140 g/ha reads like this: under setting [7], 0 to 29%; under setting [8], 0 to 29%; under setting [9], 0 to 29%; under setting [10], 0 to 29%; under setting [11], 30 to 44%; under setting [12], 0 to 29%. Moreover, the pest or weed control at 140 g/ha reads like this: under setting [13], 0 to 29%; under setting [14], 0 to 29%; under setting [15], 0 to 29%.
Take `COC(=O)c1nc(-c2ccc(C(F)(F)F)c(Cl)c2)c(F)cc1Cl` [F305, Methyl 3-chloro-6-(3-chloro-4-(trifluoromethyl)phenyl)-5-fluoropicolinate]: the pest or weed control at 140 g/ha fell in the range of 0 to 29% under setting [1]; 95 to 100% under setting [2]; 0 to 29% under setting [3]; 0 to 29% under setting [4]; 0 to 29% under setting [5]; 75 to 84% under setting [6]. Further, the pest or weed control at 140 g/ha under setting [7] was in the range of 0 to 29%; the pest or weed control at 140 g/ha under setting [8] lay within 0 to 29%; the pest or weed control at 140 g/ha under setting [9] fell in the range of 0 to 29%; the pest or weed control at 140 g/ha under setting [10] was in the range of 0 to 29%; the pest or weed control at 140 g/ha under setting [11] lay within 85 to 94%; the pest or weed control at 140 g/ha under setting [12] lay within 45 to 59%. Moreover, the pest or weed control at 140 g/ha reads like this: under setting [13], 30 to 44%; under setting [14], 0 to 29%; under setting [15], 45 to 59%.
Regarding `COC(=O)c1nc(-c2ccc(C(F)(F)F)c(F)c2)ccc1Cl` [F306, Methyl 3-chloro-6-(3-fluoro-4-(trifluoromethyl)phenyl)picolinate], the pest or weed control at 140 g/ha is, setting by setting: under setting [1], 0 to 29%; under setting [2], 95 to 100%; under setting [3], 0 to 29%; under setting [4], 0 to 29%; under setting [5], 0 to 29%; under setting [6], 60 to 74%. Further, the pest or weed control at 140 g/ha is 0 to 29% under setting [7]; 0 to 29% under setting [8]; 0 to 29% under setting [9]; 0 to 29% under setting [10]; 75 to 84% under setting [11]; 0 to 29% under setting [12]. Also, the pest or weed control at 140 g/ha fell in the range of 30 to 44% under setting [13], 0 to 29% under setting [14] and 45 to 59% under setting [15].
As to `COC(=O)c1nc(-c2ccc(C(F)(F)F)c(F)c2)c(F)cc1Cl` [F307, Methyl 3-chloro-5-fluoro-6-(3-fluoro-4-(trifluoromethyl)phenyl) picolinate], the pest or weed control at 140 g/ha is, setting by setting: under setting [1], 0 to 29%; under setting [2], 95 to 100%; under setting [3], 0 to 29%; under setting [4], 0 to 29%; under setting [5], 0 to 29%; under setting [6], 85 to 94%. For the same compound, the pest or weed control at 140 g/ha is, setting by setting: under setting [7], 0 to 29%; under setting [8], 0 to 29%; under setting [9], 0 to 29%; under setting [10], 0 to 29%; under setting [11], 85 to 94%; under setting [12], 75 to 84%. Also, the pest or weed control at 140 g/ha under setting [13] lay in the range of 75 to 84%, the pest or weed control at 140 g/ha under setting [14] was 0 to 29% and the pest or weed control at 140 g/ha under setting [15] was 0 to 29%.
As to `COC(=O)c1nc(-c2ccc(C(F)(F)F)c(C)c2)ccc1Cl` [F308, Methyl 3-chloro-6-(3-methyl-4-(trifluoromethyl)phenyl)picolinate], the pest or weed control at 140 g/ha under setting [1] was 0 to 29%; the pest or weed control at 140 g/ha under setting [2] fell in the range of 0 to 29%; the pest or weed control at 140 g/ha under setting [3] is 0 to 29%; the pest or weed control at 140 g/ha under setting [4] fell in the range of 0 to 29%; the pest or weed control at 140 g/ha under setting [5] is 0 to 29%; the pest or weed control at 140 g/ha under setting [6] lay in the range of 0 to 29%. Moreover, the pest or weed control at 140 g/ha is 0 to 29% under setting [7]; 0 to 29% under setting [8]; 0 to 29% under setting [9]; 0 to 29% under setting [10]; 0 to 29% under setting [11]; 0 to 29% under setting [12]. Moreover, the pest or weed control at 140 g/ha is, setting by setting: under setting [13], 45 to 59%; under setting [14], 0 to 29%; under setting [15], 0 to 29%.
